Measurements: ChEMBL document CHEMBL4725390, “Asymmetrically Substituted Quadruplex-Binding Naphthalene Diimide Showing Potent Activity in Pancreatic Cancer Models” (ACS Med Chem Lett, 2020)
Active and inactive are the calls of the source. No cut-off for these calls is given here.

Tests used:
[1] = Downregulation of DVL1 mRNA expression in human MIAPaCa2 cells at 40 nM after 24 hrs by RNA sequencing analysis relative to control; type: functional, MIA PaCa-2
[2] = AUC in mouse xenografted with human MIAPaCa2 cells at 0.96 mg/kg, iv administered as single dose; type: ADME, organism-based; parameters: dose 0.96 mg/kg; conditions: in vivo
[3] = Antitumor activity in KPC-induced PDAC mouse model expressing active KRASG12D and mutant p53R172H assessed as median survival time at 1 mg/kg, iv administered once per week up to 3 weeks (reference value: 12 days); type: functional
[4] = Cmax in mouse xenografted with human MIAPaCa2 cells at 0.96 mg/kg, iv administered as single dose; type: ADME, organism-based; parameters: route intravenous, dose 0.96 mg/kg; conditions: in vivo
[5] = Half life in mouse xenografted with human MIAPaCa2 cells at 0.96 mg/kg, iv administered as single dose; type: ADME, organism-based; conditions: in vivo
[6] = Downregulation of AXIN1 mRNA expression in human MIAPaCa2 cells at 40 nM after 6 hrs by RNA sequencing analysis relative to control; type: functional, MIA PaCa-2
[7] = Downregulation of MAPK11 mRNA expression in human MIAPaCa2 cells at 40 nM after 24 hrs by RNA sequencing analysis relative to control; type: functional, MIA PaCa-2
[8] = Apparent volume of distribution in mouse xenografted with human MIAPaCa2 cells at 0.96 mg/kg, iv administered as single dose; type: ADME, organism-based; conditions: in vivo, read-out: Vz
[9] = Downregulation of AXIN1 mRNA expression in human MIAPaCa2 cells at 40 nM after 24 hrs by RNA sequencing analysis relative to control; type: functional, MIA PaCa-2
[10] = system: MIA PaCa-2; assay: Downregulation of Wnt signaling pathway related gene expression in human MIAPaCa2 cells at 40 nM after 6 hrs by RNA sequencing analysis; type: functional, cell-based
[11] = system: MIA PaCa-2; assay: Antitumor activity against human MIAPaCa2 cells xenografted in mouse assessed as mean tumor volume at 1 mg/kg, iv administered twice per week for 28 days and measured at day 28 by Caliper method (reference value: 0.45 +/- 0.18 cm3); type: functional; conditions: time 28 day
[12] = system: Quadruplex DNA; assay: Binding affinity to G4 quadruplex DNA in human PANC1 cells assessed as BG4 foci formation at 400 to 800 nM after 24 hrs by immunofluorescence based confocal microscopic analysis; type: cell-based; conditions: PANC-1, dose nM 400-800, time 24.0 hrs
[13] = system: MIA PaCa-2; assay: Downregulation of hippo signaling pathway related gene expression in human MIAPaCa2 cells at 40 nM after 6 hrs by RNA sequencing analysis; type: functional, cell-based
[14] = Downregulation of WNT5B mRNA expression in human MIAPaCa2 cells at 40 nM after 24 hrs by RNA sequencing analysis relative to control; type: functional, MIA PaCa-2
[15] = system: MIA PaCa-2; assay: Antitumor activity against human MIAPaCa2 cells xenografted in mouse assessed as mean tumor volume at 1 mg/kg, iv administered once per week for 28 days and measured at day 53 by Caliper method (reference value: 1.60 +/- 0.44 cm3); type: functional; conditions: time 28 day
[16] = system: MIA PaCa-2; assay: Antitumor activity against human MIAPaCa2 cells xenografted in mouse assessed as change in tumor volume at 1 mg/kg, iv administered twice per week for 28 days and measured at day 28 by Caliper method relative to control; type: functional; conditions: time 28 day
[17] = system: Mus musculus; assay: Effect on hTERT expression in mouse xenografted with human MIAPaCa2 cells at 1 mg/kg, iv administered twice per week for 28 days and measured on day 28 by Western blot analysis; type: functional, organism-based; conditions: time 28.0 day
[18] = system: Quadruplex DNA; assay: Binding affinity to G4 quadruplex DNA in human PANC1 cells assessed as increase in number of BG4 foci at 100 nM after 24 hrs by immunofluorescence based confocal microscopic analysis; type: cell-based; conditions: PANC-1
[19] = Clearance in mouse xenografted with human MIAPaCa2 cells at 0.96 mg/kg, iv administered as single dose; type: ADME, organism-based; conditions: in vivo
[20] = system: PANC-1; assay: Antiproliferative activity against human PANC1 cells assessed as growth inhibition after 96 hrs by SRB assay; type: functional
[21] = Toxicity in mouse xenografted with human MIAPaCa2 cells assessed as effect on cardiac clinical signs at 1 mg/kg, iv administered once per week for 28 days; type: organism-based; conditions: in vivo, 672 h, time 28 day
[22] = system: MIA PaCa-2; assay: Downregulation of Wnt signaling pathway related gene expression in human MIAPaCa2 cells at 40 nM after 24 hrs by RNA sequencing analysis; type: functional, cell-based
[23] = system: Mus musculus; assay: Up regulation of cleaved PARP protein expression in mouse xenografted with human MIAPaCa2 cells at 1 mg/kg, iv administered twice per week for 28 days measured on day 28 by Western blot analysis; type: functional, organism-based; conditions: time 28.0 day
[24] = Toxicity in mouse xenografted with human MIAPaCa2 cells assessed as effect on cardiac clinical signs at 1 mg/kg, iv administered twice per week for 28 days; type: organism-based; conditions: in vivo, 672 h, time 28 day
[25] = system: Mus musculus; assay: Down regulation of MAPK11 expression in mouse xenografted with human MIAPaCa2 cells at 1 mg/kg, iv administered twice per week for 28 days and measured on day 28 by Western blot analysis; type: functional, organism-based; conditions: time 28.0 day
[26] = Downregulation of WNT5B mRNA expression in human MIAPaCa2 cells at 40 nM after 6 hrs by RNA sequencing analysis relative to control; type: functional, MIA PaCa-2
[27] = system: MIA PaCa-2; assay: Downregulation of Rap1 signaling pathway related gene expression in human MIAPaCa2 cells at 40 nM after 6 hrs by RNA sequencing analysis; type: functional, cell-based
[28] = Downregulation of hTERT mRNA expression in human MIAPaCa2 cells at 40 nM after 24 hrs by RNA sequencing analysis relative to control; type: functional, MIA PaCa-2
[29] = system: MIA PaCa-2; assay: Antitumor activity against human MIAPaCa2 cells xenografted in mouse assessed as change in tumor volume at 1 mg/kg, iv administered twice per week for 28 days and measured at day 53 by Caliper method relative to control; type: functional; conditions: time 28 day
[30] = system: MIA PaCa-2; assay: Antitumor activity against human MIAPaCa2 cells xenografted in mouse assessed as change in tumor volume at 1 mg/kg, iv administered once per week for 28 days and measured at day 28 by Caliper method relative to control; type: functional; conditions: time 28 day
[31] = system: MIA PaCa-2; assay: Antitumor activity against human MIAPaCa2 cells xenografted in mouse assessed as change in tumor volume at 1 mg/kg, iv administered once per week for 28 days and measured at day 53 by Caliper method relative to control; type: functional; conditions: time 28 day
[32] = system: MIA PaCa-2; assay: Downregulation of Rap1 signaling pathway related gene expression in human MIAPaCa2 cells at 40 nM after 24 hrs by RNA sequencing analysis; type: functional, cell-based
[33] = Downregulation of DVL1 mRNA expression in human MIAPaCa2 cells at 40 nM after 6 hrs by RNA sequencing analysis relative to control; type: functional, MIA PaCa-2
[34] = system: MIA PaCa-2; assay: Potency index, ratio of 2,7-bis(3-morpholinopropyl)-4-((2-(pyrrolidin-1-yl)ethyl)amino)benzo[lmn][3,8]phenanthroline-1,3,6,8(2H,7H)-tetraone IC50 to test compound IC50 for human MIAPaCa2 cells measured after 96 hrs by SRB assay; type: functional
[35] = Downregulation of MAPK11 mRNA expression in human MIAPaCa2 cells at 40 nM after 6 hrs by RNA sequencing analysis relative to control; type: functional, MIA PaCa-2
[36] = system: MIA PaCa-2; assay: Downregulation of cell cycle associated gene expression in human MIAPaCa2 cells at 40 nM after 24 hrs by RNA sequencing analysis; type: functional, cell-based

Question: With `O=C1c2cc(-c3ccc(CN4CCCC4)cc3)c3c4c(cc(NCCN5CCCC5)c(c24)C(=O)N1CCCN1CCOCC1)C(=O)N(CCCN1CCOCC1)C3=O` [QN-302] as the molecule, how does the log2FC [1] read?
Answer: The log2FC was 0.77.

Question: What about the AUC [2] of the same molecule?
Answer: The AUC was 5860 ng·h/mL.

Question: What about the MST [3] of the same molecule?
Answer: The MST was 24 days.

Question: What about the Cmax [4] of the same molecule?
Answer: The Cmax was 4180 ng/mL.

Question: What about the half-life [5] of the same molecule?
Answer: The half-life was 37 h.

Question: What about the log2FC [6] of the same molecule?
Answer: Its log2FC is 1.59.

Question: What about the log2FC [7] of the same molecule?
Answer: Its log2FC is 1.72.

Question: What about the Vd [8] of the same molecule?
Answer: Its Vd is 6.9 L/kg.

Question: What about the log2FC [9] of the same molecule?
Answer: Its log2FC is 0.39.

Question: What about the inhibition [10] of the same molecule?
Answer: The inhibition was “Active”.

Question: And the Activity [11]?
Answer: Its Activity is 0.06 cm3.

Question: What about the Activity [12] of the same molecule?
Answer: The Activity was “inactive”.

Question: What about the inhibition [13] of the same molecule?
Answer: Its inhibition is “Active”.

Question: What about the log2FC [14] of the same molecule?
Answer: The log2FC was 0.57.

Question: And the Activity [15]?
Answer: Its Activity is 0.17 cm3.

Question: And the Activity [16]?
Answer: The Activity was -86.6%.

Question: What about the Activity [17] of the same molecule?
Answer: The Activity was “inactive”.

Question: What about the Activity [18] of the same molecule?
Answer: The Activity was “Active”.

Question: And the clearance [19]?
Answer: The clearance was 2.2 mL/min/kg.

Question: What about the GI50 [20] of the same molecule?
Answer: The GI50 was 1.4 nM.

Question: And the Activity [21]?
Answer: The Activity was “Non-Toxic”.

Question: What about the inhibition [22] of the same molecule?
Answer: The inhibition was “Active”.

Question: What about the Activity [23] of the same molecule?
Answer: The Activity was “Active”.

Question: And the Activity [24]?
Answer: The Activity was “Non-Toxic”.

Question: What about the inhibition [25] of the same molecule?
Answer: The inhibition was “Active”.

Question: What about the log2FC [26] of the same molecule?
Answer: Its log2FC is 2.25.

Question: And the inhibition [27]?
Answer: Its inhibition is “Active”.

Question: What about the log2FC [28] of the same molecule?
Answer: Its log2FC is 1.02.

Question: And the Activity [29]?
Answer: The Activity was -90.6%.

Question: And the Activity [30]?
Answer: The Activity was -82.2%.

Question: And the Activity [31]?
Answer: The Activity was -89.83%.

Question: And the inhibition [32]?
Answer: Its inhibition is “Active”.

Question: And the log2FC [33]?
Answer: The log2FC was 1.48.

Question: And the “Ratio IC50” value [34]?
Answer: The value was 10.

Question: What about the log2FC [35] of the same molecule?
Answer: Its log2FC is 0.71.

Question: What about the inhibition [36] of the same molecule?
Answer: Its inhibition is “Active”.
